Values quoted from earlier work in EP1988398B1, “Immunoassay for tramadol and its major metabolites” (Randox Laboratories Ltd., priority 2007, dated 2008).
Where a name gives a salt, the structure may show the parent alone.

[1] = oral administration of a single 100 mg dose

SMILES | abundance of N-demethyltramadol relative to O-demethyltramadol (normal tramadol dosage levels) | plasma concentration of tramadol peaks [1] | time of peak plasma concentration [1] | Urinary excretion of the dose as metabolites (oral, single 100 mg dose) | Urinary excretion of the dose as the unchanged drug (oral, single 100 mg dose)
CNC[C@@H]1CCCC[C@@]1(O)c1cccc(OC)c1 (racemic) [N-demethyltramadol, (±)-cis-2-[(methylamino)methyl]-1-(3-methoxyphenyl)cyclohexanol] | 1.5-3 times | – | – | – | –
COc1cccc(C2(O)CCCCC2CN(C)C)c1 (racemic) [Tramadol, (±)-cis-2-[(dimethylamino)methyl]-1-(3-methoxyphenyl)cyclohexanol hydrochloride] | – | approximately 600 ng/ml | 2 to 3 h | 60% | 30%
